Assay results reported in publication PMC12866986 (European journal of medicinal chemistry, 2026).
Like-named read-outs stand apart in the source and are kept apart here.

Experiments:
Caco-2 cells [1] = conditions: cited from earlier work
Src = conditions: at 10 μM; cited from earlier work
Pyk2 = conditions: at 10 μM; cited from earlier work
gut mucosal wound = conditions: cited from earlier work
hERG = hERG (Homo sapiens, UniProt Q12809); conditions: at 30 μM
[2] = for Clint: intrinsic clearance; for MLM t1/2: mouse liver microsomes
Caco-2 cells [3] = conditions: for wound closure with proliferation inhibited: 100 nM, 4 mM hydroxyurea, 24 h, Caco-2 monolayers, n=33–35, p<0.05 vs vehicle; for EC50: read-out: EC50 (nM), ± SEM, wound healing, Caco-2 assay
[4] = rat plasma
[5] = PBS at pH = 7.4
[6] = cited from earlier work
[7] = at concentrations 10,000x higher than the effective dose; cited from earlier work
[8] = cited from earlier work; remark: listed apart in the source
[9] = after four days of continuous administration; cited from earlier work
FAK = FAK (Homo sapiens, UniProt Q05397); conditions: 1 h, relative to vehicle control, n = 8 measurements
FAK, sequence (Q05397 whole entry): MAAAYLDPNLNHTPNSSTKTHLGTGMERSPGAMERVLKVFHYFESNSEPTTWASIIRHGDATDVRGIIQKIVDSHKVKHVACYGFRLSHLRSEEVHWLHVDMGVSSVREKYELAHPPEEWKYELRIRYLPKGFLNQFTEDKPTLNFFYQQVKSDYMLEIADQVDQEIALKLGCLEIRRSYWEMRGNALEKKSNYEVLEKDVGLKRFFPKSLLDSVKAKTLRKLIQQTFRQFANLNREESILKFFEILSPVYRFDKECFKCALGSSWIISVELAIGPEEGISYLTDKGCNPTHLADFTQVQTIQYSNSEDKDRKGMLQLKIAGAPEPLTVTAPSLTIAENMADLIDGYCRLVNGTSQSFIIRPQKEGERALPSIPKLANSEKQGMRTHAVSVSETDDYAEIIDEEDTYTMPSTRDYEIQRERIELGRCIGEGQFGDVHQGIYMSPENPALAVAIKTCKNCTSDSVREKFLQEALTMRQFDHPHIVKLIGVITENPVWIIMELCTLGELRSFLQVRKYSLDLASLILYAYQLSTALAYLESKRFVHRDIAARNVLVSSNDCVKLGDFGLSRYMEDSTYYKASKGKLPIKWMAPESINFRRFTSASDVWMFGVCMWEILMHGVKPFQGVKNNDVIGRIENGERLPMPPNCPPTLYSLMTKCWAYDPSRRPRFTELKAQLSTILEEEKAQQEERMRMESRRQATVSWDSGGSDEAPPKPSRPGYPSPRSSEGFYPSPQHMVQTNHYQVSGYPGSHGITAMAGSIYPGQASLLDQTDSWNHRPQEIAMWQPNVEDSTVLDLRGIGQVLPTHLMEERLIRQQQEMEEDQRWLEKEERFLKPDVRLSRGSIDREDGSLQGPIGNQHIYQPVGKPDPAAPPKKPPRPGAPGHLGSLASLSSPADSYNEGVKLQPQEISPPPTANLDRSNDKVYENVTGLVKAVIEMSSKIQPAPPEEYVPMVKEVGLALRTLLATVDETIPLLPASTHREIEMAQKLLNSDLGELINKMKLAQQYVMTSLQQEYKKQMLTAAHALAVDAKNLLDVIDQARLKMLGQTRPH

hERG, sequence (Q12809 whole entry): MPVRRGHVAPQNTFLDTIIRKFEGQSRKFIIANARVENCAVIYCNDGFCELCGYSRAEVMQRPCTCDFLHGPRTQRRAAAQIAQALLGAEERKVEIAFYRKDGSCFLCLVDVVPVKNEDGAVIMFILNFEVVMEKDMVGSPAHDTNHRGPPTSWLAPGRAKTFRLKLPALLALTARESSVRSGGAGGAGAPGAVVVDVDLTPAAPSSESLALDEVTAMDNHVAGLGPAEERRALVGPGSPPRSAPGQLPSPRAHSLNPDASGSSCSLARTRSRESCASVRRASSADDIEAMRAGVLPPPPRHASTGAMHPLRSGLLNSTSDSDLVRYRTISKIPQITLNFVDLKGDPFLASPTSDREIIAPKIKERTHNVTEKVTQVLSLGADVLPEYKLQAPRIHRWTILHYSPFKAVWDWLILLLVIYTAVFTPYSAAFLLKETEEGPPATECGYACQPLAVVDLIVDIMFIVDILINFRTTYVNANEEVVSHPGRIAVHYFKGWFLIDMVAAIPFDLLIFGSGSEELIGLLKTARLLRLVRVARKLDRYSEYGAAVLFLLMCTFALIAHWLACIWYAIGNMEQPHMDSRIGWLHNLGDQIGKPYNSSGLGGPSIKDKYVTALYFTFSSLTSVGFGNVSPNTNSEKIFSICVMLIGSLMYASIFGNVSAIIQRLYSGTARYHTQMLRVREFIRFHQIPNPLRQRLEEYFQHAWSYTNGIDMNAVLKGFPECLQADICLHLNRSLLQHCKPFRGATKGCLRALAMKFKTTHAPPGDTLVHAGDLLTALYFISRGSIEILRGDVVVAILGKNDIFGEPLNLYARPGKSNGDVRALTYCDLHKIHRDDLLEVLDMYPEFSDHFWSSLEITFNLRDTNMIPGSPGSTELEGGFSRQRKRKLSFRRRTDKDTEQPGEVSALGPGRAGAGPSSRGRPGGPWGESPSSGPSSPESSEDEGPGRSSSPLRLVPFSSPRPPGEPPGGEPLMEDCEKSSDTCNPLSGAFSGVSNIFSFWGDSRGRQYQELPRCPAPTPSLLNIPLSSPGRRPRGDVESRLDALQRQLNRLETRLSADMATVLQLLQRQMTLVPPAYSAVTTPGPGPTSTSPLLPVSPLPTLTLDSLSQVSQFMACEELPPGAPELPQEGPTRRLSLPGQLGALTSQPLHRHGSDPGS

CN(C)C(CNC(=O)Nc1cc(C(F)(F)F)ccc1N1CCOCC1)c1ccncc1 (stereo not drawn) [Compound 5a, 1-(2-(dimethylamino)-2-(pyridin-4-yl)ethyl)-3-(2-morpholino-5-(trifluoromethyl)phenyl)urea]
epithelial sheet migration in vitro (Caco-2 cells [1]): induces epithelial sheet migration | Src activation (Src): does not activate | Pyk2 activation (Pyk2): does not activate | gut mucosal wound healing in vivo (gut mucosal wound): stimulates gut mucosal wound healing

CN(C)C(CNC(=O)Nc1cc(C(F)(F)F)ccc1N1CCOCC1)c1ccncc1.Cl (stereo not drawn) [Compound 5aHCl, 1-(2-(dimethylamino)-2-(pyridin-4-yl)ethyl)-3-(2-morpholino-5-(trifluoromethyl)phenyl)urea hydrochloric salt]
hERG Inhibition % (hERG): 4.87% | Clint [2]: > 307 uL/min/mg protein | MLM t1/2 [2]: < 4.51 min | wound closure with proliferation inhibited (Caco-2 cells [3]): accelerated | EC50 (Caco-2 cells [3]): 3.01 ± 0.52 nM | area under the curve ([4]; 10 mg/kg oral gavage): 3149 µg·h/mL | time of Cmax ([4]; 10 mg/kg oral gavage): 1 h | maximum concentration (Cmax) ([4]; 10 mg/kg oral gavage in saline, n = 4): 967 ng/mL | Solubility [5]: 1074 µg/mL | water solubility [6]: water-soluble | in vitro cytotoxicity [7]: no in vitro cytotoxicity | oral bioavailability [8]: orally bioavailable | in vivo toxicity [9]: no in vivo toxicity

CN(C)C(CNC(=O)Nc1cc(F)ccc1N1CCOCC1)c1ccncc1.Cl (stereo not drawn) [Compound 10bHCl, 1-(2-(Dimethylamino)-2-(pyridin-4-yl)ethyl)-3-(5-fluoro-2-morpholinophenyl)urea hydrochloric salt]
hERG Inhibition % (hERG): 15.2% | Clint [2]: > 307 uL/min/mg protein | MLM t1/2 [2]: <4.51 min | wound closure with proliferation inhibited (Caco-2 cells [3]): accelerated | EC50 (Caco-2 cells [3]): 2.36 ± 0.58 nM | FAK-Tyr-397/FAK fold change, ± SEM (FAK; 10 nM): 1.25 fold change | FAK-Tyr-397/FAK fold change, ± SEM (FAK; 100 nM): 1.39 fold change | Solubility [5]: 985 µg/mL

Cc1ccc(N2CCOCC2)c(NC(=O)NCC(c2ccncc2)N(C)C)c1 (stereo not drawn) [Compound 10c, 1-(2-(Dimethylamino)-2-(pyridin-4-yl)ethyl)-3-(5-methyl-2-morpholinophenyl)urea]
FAK-Tyr-397/FAK fold change, ± SEM (FAK; 100 nM): 0.89±0.05 fold change

CN(C)C(CNC(=O)Nc1cc(C#N)ccc1N1CCOCC1)c1ccncc1 (stereo not drawn) [Compound 10d, 1-(5-Cyano-2-morpholinophenyl)-3-(2-(dimethylamino)-2-(pyridin-4-yl)ethyl)urea]
FAK-Tyr-397/FAK fold change, ± SEM (FAK; 100 nM): 0.83±0.07 fold change

CN(C)C(CNC(=O)Nc1cc(Cl)ccc1N1CCOCC1)c1ccncc1 (stereo not drawn) [Compound 10e, 1-(5-Chloro-2-morpholinophenyl)-3-(2-(dimethylamino)-2-(pyridin-4-yl)ethyl)urea]
FAK-Tyr-397/FAK fold change, ± SEM (FAK; 100 nM): 0.82±0.06 fold change

CN(C)C(CNC(=O)Nc1cc(C(F)F)ccc1N1CCOCC1)c1ccncc1 (stereo not drawn) [Compound 10f, 1-(5-(Difluoromethyl)-2-morpholinophenyl)-3-(2-(dimethylamino)-2-(pyridin-4-yl)ethyl)urea]
FAK-Tyr-397/FAK fold change, ± SEM (FAK; 100 nM): 1.2±0.08 fold change

CN(C)C(CNC(=O)Nc1cc(OC(F)(F)F)ccc1N1CCOCC1)c1ccncc1 (stereo not drawn) [Compound 10g, 1-(2-(Dimethylamino)-2-(pyridin-4-yl)ethyl)-3-(2-morpholino-5-(trifluoromethoxy)phenyl)urea]
FAK-Tyr-397/FAK fold change, ± SEM (FAK; 100 nM): 1.12±0.03 fold change

COc1ccc(N2CCOCC2)c(NC(=O)NCC(c2ccncc2)N(C)C)c1 (stereo not drawn) [Compound 10h, 1-(2-(Dimethylamino)-2-(pyridin-4-yl)ethyl)-3-(5-methoxy-2-morpholinophenyl)urea]
FAK-Tyr-397/FAK fold change, ± SEM (FAK; 100 nM): 1.29±0.07 fold change

COCOc1ccc(N2CCOCC2)c(NC(=O)NCC(c2ccncc2)N(C)C)c1 (stereo not drawn) [Compound 10i, 1-(2-(Dimethylamino)-2-(pyridin-4-yl)ethyl)-3-(5-(methoxymethoxy)-2-morpholinophenyl)urea]
FAK-Tyr-397/FAK fold change, ± SEM (FAK; 100 nM): 1.28±0.1 fold change

COCCOc1ccc(N2CCOCC2)c(NC(=O)NCC(c2ccncc2)N(C)C)c1 (stereo not drawn) [Compound 10j, 1-(2-(Dimethylamino)-2-(pyridin-4-yl)ethyl)-3-(5-(2-methoxyethoxy)-2-morpholinophenyl)urea]
FAK-Tyr-397/FAK fold change, ± SEM (FAK; 100 nM): 1.05±0.1 fold change

COCCOCCOc1ccc(N2CCOCC2)c(NC(=O)NCC(c2ccncc2)N(C)C)c1 (stereo not drawn) [Compound 10k, 1-(2-(Dimethylamino)-2-(pyridin-4-yl)ethyl)-3-(5-(2-(2-methoxyethoxy)ethoxy)-2-morpholinophenyl)urea]
FAK-Tyr-397/FAK fold change, ± SEM (FAK; 100 nM): 1.32±0.03 fold change

COCCOCCOc1ccc(N2CCOCC2)c(NC(=O)NCC(c2ccncc2)N(C)C)c1.Cl (stereo not drawn) [Compound 10kHCl, 1-(2-(Dimethylamino)-2-(pyridin-4-yl)ethyl)-3-(5-(2-(2-methoxyethoxy)ethoxy)-2-morpholinophenyl)urea hydrochloric salt]
hERG Inhibition % (hERG): 0.608% | Clint [2]: 93.0 uL/min/mg protein | MLM t1/2 [2]: 14.9 min | wound closure with proliferation inhibited (Caco-2 cells [3]): accelerated | EC50 (Caco-2 cells [3]): 3.01 ± 0.51 nM | Solubility [5]: 1018 µg/mL

COCCOCCOCCOc1ccc(N2CCOCC2)c(NC(=O)NCC(c2ccncc2)N(C)C)c1 (stereo not drawn) [Compound 10l, 1-(2-(Dimethylamino)-2-(pyridin-4-yl)ethyl)-3-(5-(2-(2-(2-methoxyethoxy)ethoxy)ethoxy)-2-morpholinophenyl)urea]
FAK-Tyr-397/FAK fold change, ± SEM (FAK; 100 nM): 1.13±0.1 fold change

CN(C)C(CNC(=O)Nc1cc(OCCOCCO)ccc1N1CCOCC1)c1ccncc1 (stereo not drawn) [Compound 10m, 1-(2-(Dimethylamino)-2-(pyridin-4-yl)ethyl)-3-(5-(2-(2-hydroxyethoxy)ethoxy)-2-morpholinophenyl)urea]
FAK-Tyr-397/FAK fold change, ± SEM (FAK; 100 nM): 0.93±0.1 fold change
